Experimental data: ChEMBL document CHEMBL1201862, “PubChem BioAssay data set” (2004)
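A five-concentration, 48-hour dose response in 96-well plates underlies each endpoint, interpolated linearly between surrounding concentrations. GI50: concentration for 50% inhibition of growth.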 Activity calls are given as the source filed them. Cut-off read from the data, not from the text of the source: active = GI50 up to about 1.1 µM and inactive = higher.

What was measured:
Assay in all cases: inhibition of tumour cell growth, NCI panel, 48 h
SF-539 = system: SF-539
RXF 393 = system: RXF 393
SW-620 = system: SW-620
CCRF-CEM = system: CCRF-CEM
A549 = system: A549
SN12C = system: SN12C
HCT-15 = system: HCT-15
A498 = system: A498
DMS-114 = system: DMS-114
COLO 205 = system: COLO 205
HCC 2998 = system: HCC 2998
UACC-62 = system: UACC-62
786-0 = system: 786-0
SF-295 = system: SF-295
MOLT-4 = system: MOLT-4
SR = system: SR
MDA-N = system: MDA-N
MCF7 = system: MCF7
MDA-MB-435 = system: MDA-MB-435
NCI/ADR-RES = system: NCI/ADR-RES

SMILES	GI50 (SF-539)	GI50 (RXF 393)	GI50 (SW-620)	GI50 (CCRF-CEM)	GI50 (A549)	GI50 (SN12C)	GI50 (HCT-15)	GI50 (A498)	GI50 (DMS-114)	GI50 (COLO 205)	GI50 (HCC 2998)	GI50 (UACC-62)	GI50 (786-0)	GI50 (SF-295)	GI50 (MOLT-4)	GI50 (SR)	GI50 (MDA-N)	GI50 (MCF7)	GI50 (MDA-MB-435)	GI50 (NCI/ADR-RES)
CCOC(=O)C1N(S(=O)(=O)c2ccc(C)cc2)CCC12C(c1ccc(OC)cc1)NC1CCCCC12 (stereo not drawn)	55.7 µM (inactive)	44.4 µM (inactive)	> 100 µM (inactive)	> 100 µM (inactive)	> 100 µM (inactive)	> 100 µM (inactive)	> 100 µM	> 100 µM (inactive)	> 100 µM (inactive)	> 100 µM (inactive)	> 100 µM (inactive)	> 100 µM (inactive)	68.7 µM (inactive)	77.6 µM (inactive)						
CCC(C)NC1=C(NC(C)=O)C(=O)c2ccccc2C1=O (stereo not drawn)	> 75 µM (inactive)	> 75 µM (inactive)	22.5 µM (inactive)	21.8 µM (inactive)	> 75 µM (inactive)	> 75 µM (inactive)	46.1 µM	> 75 µM (inactive)	28.4 µM (inactive)	> 75 µM (inactive)	> 75 µM (inactive)	> 75 µM (inactive)	> 7.5 µM (inactive)	> 75 µM (inactive)	74 µM (inactive)					
C/C(=N\OCC(O)CNC(C)C)c1ccc2c(c1)NC(=O)CS2 (stereo not drawn)	> 100 µM (inactive)	> 100 µM (inactive)	> 100 µM (inactive)	> 100 µM (inactive)	> 100 µM (inactive)	> 100 µM (inactive)	> 100 µM	> 100 µM (inactive)	> 100 µM (inactive)	> 100 µM (inactive)	> 100 µM (inactive)	> 100 µM (inactive)	> 100 µM (inactive)	> 100 µM (inactive)	> 100 µM (inactive)					
CC1CN(c2ccc(Cl)cc2)CC(C)(C)OC(=O)O1 (stereo not drawn)	> 100 µM (inactive)	> 100 µM (inactive)	> 100 µM (inactive)	> 100 µM (inactive)	> 100 µM (inactive)	> 100 µM (inactive)	> 100 µM		> 100 µM (inactive)	> 100 µM (inactive)	> 100 µM (inactive)	> 100 µM (inactive)	> 100 µM (inactive)	> 100 µM (inactive)		> 100 µM (inactive)				
Nc1n[n+]2cc(-c3ccccc3)n(CC(=O)c3ccccc3)c2s1	20.1 µM (inactive)	20.4 µM (inactive)	23.2 µM (inactive)	15.8 µM (inactive)	> 100 µM (inactive)	42.6 µM (inactive)	44.7 µM	> 100 µM (inactive)		15.3 µM (inactive)	15 µM (inactive)	30.5 µM (inactive)	20.5 µM (inactive)	> 100 µM (inactive)	20.9 µM (inactive)	18.4 µM (inactive)	34.4 µM (inactive)	10.8 µM (inactive)	36.9 µM (inactive)	> 100 µM (inactive)
Cc1cn(Cc2ccccc2CCO)c(=S)[nH]c1=O	> 100 µM (inactive)	> 100 µM (inactive)	> 100 µM (inactive)	> 100 µM (inactive)	> 100 µM (inactive)	> 100 µM (inactive)	> 100 µM	> 100 µM (inactive)	> 100 µM (inactive)	> 100 µM (inactive)		> 100 µM (inactive)	> 100 µM (inactive)	> 100 µM (inactive)	> 100 µM (inactive)					
Sc1nnc(C(c2ccccc2)c2ccccc2)[nH]1	> 100 µM (inactive)	> 100 µM (inactive)	> 100 µM (inactive)	> 100 µM (inactive)	> 100 µM (inactive)	> 100 µM (inactive)	> 100 µM	> 100 µM (inactive)	> 100 µM (inactive)	> 100 µM (inactive)	> 100 µM (inactive)	> 100 µM (inactive)	> 100 µM (inactive)	> 100 µM (inactive)	> 100 µM (inactive)					
CN1C(=O)C(O)CC1c1ccccc1F (stereo not drawn)	> 100 µM (inactive)	> 100 µM (inactive)	> 100 µM (inactive)	> 100 µM (inactive)	> 100 µM (inactive)	> 100 µM (inactive)	> 100 µM	> 100 µM (inactive)		> 100 µM (inactive)	> 100 µM (inactive)	> 100 µM (inactive)	> 100 µM (inactive)	> 100 µM (inactive)	> 100 µM (inactive)	> 100 µM (inactive)	> 100 µM (inactive)	> 100 µM (inactive)	> 100 µM (inactive)	> 100 µM (inactive)
COC(=O)C1CC/C(=N\c2cccc(C(F)(F)F)c2)N1 (stereo not drawn)			> 100 µM (inactive)	> 100 µM (inactive)	> 100 µM (inactive)	> 100 µM (inactive)	> 100 µM	> 100 µM (inactive)	> 100 µM (inactive)	> 100 µM (inactive)	> 100 µM (inactive)	> 100 µM (inactive)	> 100 µM (inactive)	> 100 µM (inactive)	> 100 µM (inactive)					
